These results are taken from patent US20240238309A1, “PHARMACEUTICAL FORMULATIONS OF TREPROSTINIL PRODRUGS AND METHODS OF USE THEREOF” (Insmed Incorporated, priority 2020, published 2024).

The series is described as follows: Solubility of C16TR in propellants. Format: physicochemical. The settings on record: HFA134a, HFA227ea, and HFA152a. The source says:
C16TR is insoluble in all commercially available propellants (HFA134a, HFA227ea, and HFA152a) and requires the use of alcohol co-solvent. When formulated with DSPE-PEG2000 and PEG400 for use with an MDI as well as desirable in vivo performance, the formulation required approximately 10% of alcohol co-solvent. Such a high level of alcohol co-solvent may lead to reduced chemical stability and aerosol performance. Unexpected improvement in chemical stability was observed when a switch from ethanol (industry standard cosolvent) to isopropyl alcohol (novel excipient) was made, as in the C16TR-MDI-W formulation.

As for `CCCCCCCCCCCCCCCCOC(=O)COc1cccc2c1C[C@H]1C[C@@H](O)[C@H](CC[C@@H](O)CCCCC)[C@H]1C2` [Formulation C16TR, Treprostinil palmitil], the “solubility in commercially available propellants” value is on record as “insoluble”.
